Where “and” joins values, the source holds several entries; their conditions need not be identical. Identical values can stand only once. Like-named read-outs stand apart in the source and are kept apart here.
What was measured:
[1] = Single-dose oral pharmacokinetic study in squirrel monkeys (LC/MS/MS serum concentrations); type: in vivo, squirrel monkeys (Saimiri sciureus); conditions: for tmax: 50 mg/kg oral (intragastric) single dose
Description: All animal experiments were carried out in compliance with the regulations of German animal protection laws and authorized by the Regierungspräsidium Darmstadt, Germany (Dezernat V54 – Veterinärwesen und Verbraucherschutz, Hilpertstrasse 31, 64295 Darmstadt). Adult male and female squirrel monkeys (Saimiri sciureus) were obtained from BioPRIM, 31450 Baziege, or CNRS 0846 Primatologie, 13790 Rousset, France. Each experimental group was housed in a separate room, and animals of the same sex were caged together within the respective groups. For the single-dose pharmacokinetic experiment, animals were anesthetized, and the drug was given through a stomach tube at a concentration of 50 mg/kg bodyweight. Blood samples were collected after 15, 30, and 60 min, and 2, 3, 6, and 24 h. For efficacy assessment, groups of 6 animals were left untreated or treated with 50 mg/kg of ERDRP-0519 twice daily for two weeks, starting either 12 h before or 3 or 7 days after intranasal infection with 10^6 TCID50 of MV/FrankfurtMain.DEU/17.11. Clinical signs, rectal temperature, and weight were recorded daily, and throat swabs and blood samples were collected before infection and twice weekly thereafter. On day 21 post-infection, the animals were euthanized, necropsied, and samples were collected for histological analysis.
Drug concentrations were determined using an internal standard and a reversed phase isocratic HPLC method with positive ion electrospray ionization (ESI) mass spectrometry detection (LC/MS/MS) on an AB-SCIEX API 5500 MS/MS instrument (5 μl injection volume). Pharmacokinetic parameters were estimated using WinNonlin 5.3 (Pharsight).

[2] = tested on: MeV/NewJersey.USA/94/1 (genotype D6); assay: PK and PD recapitulation ex vivo in MeV-infected human PBMCs, progeny virus titer (TCID50); type: cell-based, Measles virus in human PBMCs; conditions: for Virus titers: hPBMCs, individual repeats; for Mean, Transform of Virus Titer: n = 4
Description: Human peripheral blood mononuclear cells (hPBMCs) were infected (MOI = 0.1 TCID50 units per cell) in a 24-well plate format with MeV/NewJersey.USA/94/1 (genotype D6) in the presence of ERDRP-0519 or DMSO (0.1%). […] Cells were collected 48 h after infection and virus was subsequently harvested after two freeze thaw cycles. Released virus titers were then determined by limited dilution method (TCID50) on Vero/hSLAM cells. Four biological repeats were used for each ex vivo PK recapitulation and three biological repeats were used for DMSO-treated hPBMCs.
PK and PD recapitulation in human blood mononuclear cells
To test whether viral replication in […]
circumstances, we performed an in vitro recapitulation experiment. For this, we infected human PBMCs in a 24-well plate format with MeV/NewJersey.USA/94/1 (genotype D6) at a multiplicity of infection of 0.1 TCID 50 units per cell. To mimic the ERDRP-0519 serum concentration profile in vitro , we adjusted the drug concentrations in our PBMC cultures multiple times during the incubation period as shown by the colored areas in Fig. 1c (recapitulating a once per day treatment regimen, q.d.) and Fig. 1d (recapitulating a twice daily treatment regimen, b.i.d.) and summarized in Supplementary Table 3. The concentration changes were applied for a total of 48 h to the infected PBMC cultures (a total of two cycles of the q.d. regimen and four cycles of the b.i.d. regimen, assuming no drug accumulation during repeated treatment). As controls, infected PBMCs were incubated in the presence of vehicle only (0.1 % DMSO) or with a constant concentration of 1.5 µM of ERDRP-0519 over the whole period of 48 h post infection. Cells were collected 48 hours after infection and virus was subsequently harvested after two freeze thaw cycles. Released virus titers were then determined by limited dilution method (TCID 50) on Vero/hSLAM cells (Fig. 1e). Four biological repeats were used for each ex vivo PK recapitulation and three biological repeats were used for DMSO-treated hPBMCs.

[3] = tested on: canine distemper virus (CDV); conditions: lethal CDV-ferret model; cited from earlier work
[4] = both sexes, monkey, serum, squirrel monkeys, 50 mg/kg oral single dose, n = 3

SMILES: Cn1nc(C(F)(F)F)cc1C(=O)Nc1ccc(S(=O)(=O)N2CCCC[C@H]2CCN2CCOCC2)cc1 [ERDRP-0519]
- concentration at 2 h ([1]; 50 mg/kg oral, 0.25 h post-application, individual animals, read-out: ERDRP-0519 serum conc.): 672.2 nM and 1545 nM and 3833 nM
- concentration at 2 h ([1]; 50 mg/kg oral, 0.5 h post-application, individual animals, read-out: ERDRP-0519 serum conc.): 691.1 nM and 917.7 nM and 3493 nM
- concentration at 2 h ([1]; 50 mg/kg oral, 1 h post-application, individual animals, read-out: ERDRP-0519 serum conc.): 1158 nM and 2002 nM and 3607 nM
- concentration at 2 h ([1]; 50 mg/kg oral, 2 h post-application, individual animals, read-out: ERDRP-0519 serum conc.): 3078 nM and 3040 nM
- concentration at 2 h ([1]; 50 mg/kg oral, 3 h post-application, individual animals, read-out: ERDRP-0519 serum conc.): 2889 nM and 2172 nM
- concentration at 2 h ([1]; 50 mg/kg oral, 6 h post-application, individual animals, read-out: ERDRP-0519 serum conc.): 1259.5 nM and 991.4 nM
- concentration at 2 h ([1]; 50 mg/kg oral, 24 h post-application, individual animals, read-out: ERDRP-0519 serum conc.): 39.09 nM and 98 nM and 77.99 nM
- concentration at 0 h ([1]; both sexes, monkey, serum, oral, 50 mg/kg, 50 mg/kg oral, 0 h post-application, individual animals, read-out: ERDRP-0519 serum conc.): 0 nM
- concentration at 2 h ([1]; both sexes, monkey, serum, oral, 50 mg/kg, 50 mg/kg oral, 2 h post-application, individual animals, read-out: ERDRP-0519 serum conc.): 2490 nM
- concentration at 3 h ([1]; both sexes, monkey, serum, oral, 50 mg/kg, 50 mg/kg oral, 3 h post-application, individual animals, read-out: ERDRP-0519 serum conc.): 2510 nM
- concentration at 6 h ([1]; both sexes, monkey, serum, oral, 50 mg/kg, 50 mg/kg oral, 6 h post-application, individual animals, read-out: ERDRP-0519 serum conc.): 1340 nM
- tmax ([1]; both sexes, monkey, serum, po, 50 mg/kg, squirrel monkeys, n = 3, read-out: tmax): 1.8 h
- AUC(0-inf) [1, 4]: 24.4 µM·h
- Cmax [1, 4]: 3270 nM
- half-life ([1]; both sexes, monkey, serum, squirrel monkeys, 50 mg/kg oral single dose, n = 3, read-out: t1/2 terminal elimination half-life (converted)): 4.2 h
- tmax ([1]; squirrel monkeys, n = 3, 50 mg/kg): ~ 2 h
- reduction in progeny virus titer ([2]; continuous exposure of MeV-infected hPBMCs to 1.5 µM, 48 h): greater than three orders of magnitude reduction
- Virus titers ([2]; 48 h, b.i.d. 50 mg/kg simulated profile): 1.80E+02 TCID50/10^6 PBMCs and 3.21E+02 TCID50/10^6 PBMCs and 4.27E+02 TCID50/10^6 PBMCs and 7.60E+01 TCID50/10^6 PBMCs
- Virus titers ([2]; 48 h, constant 1.5 μM): 7.60E+01 TCID50/10^6 PBMCs and 5.70E+01 TCID50/10^6 PBMCs and 4.27E+01 TCID50/10^6 PBMCs
- Virus titers ([2]; 48 h, q.d. 50 mg/kg simulated profile): 1.80E+03 TCID50/10^6 PBMCs and 2.40E+03 TCID50/10^6 PBMCs and 3.21E+03 TCID50/10^6 PBMCs and 1.35E+03 TCID50/10^6 PBMCs
- Mean, Transform of Virus Titer ([2]; once daily recapitulation): 3.318
- Mean Diff., Transform of Virus Titer ([2]; once daily vs. trough): 1.531
- Mean Diff., Transform of Virus Titer ([2]; once daily vs. twice daily): 0.9998
- Mean Diff., Transform of Virus Titer ([2]; once daily vs. vehicle): -1.854
- progeny MeV titers versus untreated controls ([2]; q.d. and b.i.d. regimen recapitulated ex vivo in hPBMCs, 48 h): significantly (p < 0.0001) lower than in untreated controls
- Mean, Transform of Virus Titer ([2]; trough (constant 1.5 µM)): 1.787
- Mean Diff., Transform of Virus Titer ([2]; trough vs. vehicle): -3.385
- Mean, Transform of Virus Titer ([2]; twice daily recapitulation): 2.318
- Mean Diff., Transform of Virus Titer ([2]; twice daily vs. trough): 0.5313
- Mean Diff., Transform of Virus Titer ([2]; twice daily vs. vehicle): -2.853
- survival after post-exposure therapeutic dosing [3]: complete survival of all treated animals
